Experimental data as given in ChEMBL document CHEMBL5291721, “A preclinical secondary pharmacology resource illuminates target-adverse drug reaction associations of marketed drugs” (Nat Commun, 2023).

Assays:
Androgen receptor [1] = molecular target: T1, Androgen receptor (Homo sapiens, UniProt P10275)
T1 sequence (P10275 whole entry): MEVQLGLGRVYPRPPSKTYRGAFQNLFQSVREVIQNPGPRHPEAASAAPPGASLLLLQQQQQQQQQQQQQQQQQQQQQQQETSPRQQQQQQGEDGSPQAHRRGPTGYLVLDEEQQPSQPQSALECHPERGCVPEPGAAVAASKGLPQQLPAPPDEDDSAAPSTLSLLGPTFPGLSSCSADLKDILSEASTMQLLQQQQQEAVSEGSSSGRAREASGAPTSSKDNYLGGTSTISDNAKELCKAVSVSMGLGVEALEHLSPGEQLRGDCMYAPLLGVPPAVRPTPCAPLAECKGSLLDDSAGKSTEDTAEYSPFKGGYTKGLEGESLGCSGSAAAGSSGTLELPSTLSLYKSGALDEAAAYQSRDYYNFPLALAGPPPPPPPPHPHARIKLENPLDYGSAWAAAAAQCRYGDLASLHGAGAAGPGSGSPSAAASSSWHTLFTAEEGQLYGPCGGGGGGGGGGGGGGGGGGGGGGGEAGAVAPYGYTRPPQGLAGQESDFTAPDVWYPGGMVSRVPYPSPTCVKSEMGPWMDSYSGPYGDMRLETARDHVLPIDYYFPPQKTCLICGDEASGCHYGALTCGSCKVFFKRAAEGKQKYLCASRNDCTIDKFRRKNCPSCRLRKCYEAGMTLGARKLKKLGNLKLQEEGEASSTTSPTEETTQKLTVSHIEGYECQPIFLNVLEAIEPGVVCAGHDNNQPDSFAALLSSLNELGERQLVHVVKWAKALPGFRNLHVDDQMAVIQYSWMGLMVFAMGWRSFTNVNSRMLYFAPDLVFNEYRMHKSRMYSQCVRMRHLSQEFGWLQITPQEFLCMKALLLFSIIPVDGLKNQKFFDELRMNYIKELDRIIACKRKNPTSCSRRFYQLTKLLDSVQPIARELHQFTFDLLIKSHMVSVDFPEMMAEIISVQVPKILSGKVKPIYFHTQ

[2] = molecular target: Voltage-dependent N-type calcium channel subunit alpha-1B (Rattus norvegicus, UniProt Q02294); assay type: functional
Chain of Voltage-dependent N-type calcium channel subunit alpha-1B (Q02294 whole entry): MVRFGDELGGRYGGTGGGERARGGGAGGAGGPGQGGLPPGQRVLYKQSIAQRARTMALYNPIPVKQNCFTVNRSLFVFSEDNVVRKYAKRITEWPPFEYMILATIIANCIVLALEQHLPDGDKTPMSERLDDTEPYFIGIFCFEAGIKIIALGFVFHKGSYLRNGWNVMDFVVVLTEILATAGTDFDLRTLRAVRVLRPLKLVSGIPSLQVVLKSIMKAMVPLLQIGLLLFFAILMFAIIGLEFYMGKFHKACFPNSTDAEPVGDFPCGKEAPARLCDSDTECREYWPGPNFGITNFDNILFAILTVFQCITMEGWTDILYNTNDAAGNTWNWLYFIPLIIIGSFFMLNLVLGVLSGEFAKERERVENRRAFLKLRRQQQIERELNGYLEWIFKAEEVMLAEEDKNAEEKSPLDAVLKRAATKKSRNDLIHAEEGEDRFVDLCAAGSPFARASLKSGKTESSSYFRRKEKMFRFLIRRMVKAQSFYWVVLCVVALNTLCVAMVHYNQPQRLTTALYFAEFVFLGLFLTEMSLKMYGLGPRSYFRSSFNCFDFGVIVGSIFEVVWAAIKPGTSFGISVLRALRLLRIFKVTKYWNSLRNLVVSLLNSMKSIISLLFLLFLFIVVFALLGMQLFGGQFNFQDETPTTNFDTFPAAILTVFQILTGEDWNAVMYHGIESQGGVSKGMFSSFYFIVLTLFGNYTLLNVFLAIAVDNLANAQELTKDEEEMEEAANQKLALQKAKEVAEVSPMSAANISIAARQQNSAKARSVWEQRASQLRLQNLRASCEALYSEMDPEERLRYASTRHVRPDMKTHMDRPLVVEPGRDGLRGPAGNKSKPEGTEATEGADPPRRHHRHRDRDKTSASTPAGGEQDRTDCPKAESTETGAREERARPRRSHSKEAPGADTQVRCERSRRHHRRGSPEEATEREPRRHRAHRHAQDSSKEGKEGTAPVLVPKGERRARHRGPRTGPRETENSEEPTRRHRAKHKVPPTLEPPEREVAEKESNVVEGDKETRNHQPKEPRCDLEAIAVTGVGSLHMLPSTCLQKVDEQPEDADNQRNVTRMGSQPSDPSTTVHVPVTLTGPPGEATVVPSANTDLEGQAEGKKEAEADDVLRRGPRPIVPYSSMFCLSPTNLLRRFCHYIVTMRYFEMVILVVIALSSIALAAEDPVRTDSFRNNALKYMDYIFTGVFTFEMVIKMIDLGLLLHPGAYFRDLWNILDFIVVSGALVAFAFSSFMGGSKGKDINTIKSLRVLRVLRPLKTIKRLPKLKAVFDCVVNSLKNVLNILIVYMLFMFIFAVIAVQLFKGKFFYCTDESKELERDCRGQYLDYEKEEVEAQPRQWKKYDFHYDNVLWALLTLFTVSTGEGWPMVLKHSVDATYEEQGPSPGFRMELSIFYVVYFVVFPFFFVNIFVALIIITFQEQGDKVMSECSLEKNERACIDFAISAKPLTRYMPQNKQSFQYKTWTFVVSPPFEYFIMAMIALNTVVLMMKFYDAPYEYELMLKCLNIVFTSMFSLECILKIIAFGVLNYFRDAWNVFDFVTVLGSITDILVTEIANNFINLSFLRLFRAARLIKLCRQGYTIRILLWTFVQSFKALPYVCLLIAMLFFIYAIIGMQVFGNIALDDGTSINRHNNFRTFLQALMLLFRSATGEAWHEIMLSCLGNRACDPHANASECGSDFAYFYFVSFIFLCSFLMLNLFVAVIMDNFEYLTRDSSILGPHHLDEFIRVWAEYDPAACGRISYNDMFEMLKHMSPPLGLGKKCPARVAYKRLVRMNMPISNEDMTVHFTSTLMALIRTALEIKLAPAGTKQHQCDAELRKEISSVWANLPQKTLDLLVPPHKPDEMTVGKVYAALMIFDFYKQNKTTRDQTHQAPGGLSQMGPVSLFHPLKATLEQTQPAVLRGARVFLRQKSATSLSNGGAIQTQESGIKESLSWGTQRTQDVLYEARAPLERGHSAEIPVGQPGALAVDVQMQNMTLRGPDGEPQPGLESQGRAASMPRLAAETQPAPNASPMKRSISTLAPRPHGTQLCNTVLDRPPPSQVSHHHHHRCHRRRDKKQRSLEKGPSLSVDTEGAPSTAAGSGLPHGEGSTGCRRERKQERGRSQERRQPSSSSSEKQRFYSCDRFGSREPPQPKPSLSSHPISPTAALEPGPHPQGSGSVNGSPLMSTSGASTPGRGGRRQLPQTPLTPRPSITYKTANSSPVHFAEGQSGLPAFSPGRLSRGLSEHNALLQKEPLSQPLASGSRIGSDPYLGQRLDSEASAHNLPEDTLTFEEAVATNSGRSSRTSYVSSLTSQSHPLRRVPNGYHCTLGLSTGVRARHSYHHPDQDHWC

[3] = molecular target: T2, Corticotropin-releasing factor receptor 2 (Homo sapiens, UniProt Q13324)
T2 sequence (Q13324 whole entry): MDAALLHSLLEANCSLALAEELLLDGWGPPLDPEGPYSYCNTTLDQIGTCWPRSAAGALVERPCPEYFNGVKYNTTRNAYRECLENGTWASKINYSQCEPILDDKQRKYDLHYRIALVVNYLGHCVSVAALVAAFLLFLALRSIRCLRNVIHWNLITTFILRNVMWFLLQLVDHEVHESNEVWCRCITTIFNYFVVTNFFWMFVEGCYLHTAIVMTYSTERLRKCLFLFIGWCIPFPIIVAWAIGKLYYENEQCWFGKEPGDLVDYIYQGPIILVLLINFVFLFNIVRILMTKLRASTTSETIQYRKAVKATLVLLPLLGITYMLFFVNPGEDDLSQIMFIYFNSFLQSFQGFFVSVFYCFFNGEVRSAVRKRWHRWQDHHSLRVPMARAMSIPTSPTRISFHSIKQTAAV

[4] = molecular target: T3, Endothelin receptor type B (Homo sapiens, UniProt P24530)
T3 sequence (P24530 whole entry): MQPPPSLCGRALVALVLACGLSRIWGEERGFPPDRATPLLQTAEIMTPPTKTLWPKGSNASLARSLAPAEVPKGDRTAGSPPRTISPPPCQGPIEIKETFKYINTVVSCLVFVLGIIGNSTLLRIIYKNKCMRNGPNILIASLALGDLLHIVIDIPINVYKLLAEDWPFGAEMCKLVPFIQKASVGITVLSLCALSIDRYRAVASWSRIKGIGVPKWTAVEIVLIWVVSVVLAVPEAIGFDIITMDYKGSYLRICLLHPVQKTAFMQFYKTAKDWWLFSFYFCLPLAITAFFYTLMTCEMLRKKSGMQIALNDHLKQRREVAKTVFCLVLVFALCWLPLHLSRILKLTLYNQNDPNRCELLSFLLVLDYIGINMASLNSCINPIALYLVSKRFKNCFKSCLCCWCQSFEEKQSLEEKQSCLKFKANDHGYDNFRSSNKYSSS

Histamine H2 receptor = Histamine H2 receptor (Homo sapiens, UniProt P25021)
Chain of Histamine H2 receptor (P25021 whole entry): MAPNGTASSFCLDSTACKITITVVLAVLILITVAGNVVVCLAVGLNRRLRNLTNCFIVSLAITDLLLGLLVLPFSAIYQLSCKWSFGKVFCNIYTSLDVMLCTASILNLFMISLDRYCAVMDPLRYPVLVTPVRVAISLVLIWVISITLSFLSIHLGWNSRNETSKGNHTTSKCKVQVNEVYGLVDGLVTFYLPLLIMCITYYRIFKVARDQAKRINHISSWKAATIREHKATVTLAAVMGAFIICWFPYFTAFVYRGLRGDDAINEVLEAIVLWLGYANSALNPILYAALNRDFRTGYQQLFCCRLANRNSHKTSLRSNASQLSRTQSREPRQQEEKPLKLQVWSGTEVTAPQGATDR

Substance-P receptor = Substance-P receptor (Homo sapiens, UniProt P25103)
Chain of Substance-P receptor (P25103 whole entry): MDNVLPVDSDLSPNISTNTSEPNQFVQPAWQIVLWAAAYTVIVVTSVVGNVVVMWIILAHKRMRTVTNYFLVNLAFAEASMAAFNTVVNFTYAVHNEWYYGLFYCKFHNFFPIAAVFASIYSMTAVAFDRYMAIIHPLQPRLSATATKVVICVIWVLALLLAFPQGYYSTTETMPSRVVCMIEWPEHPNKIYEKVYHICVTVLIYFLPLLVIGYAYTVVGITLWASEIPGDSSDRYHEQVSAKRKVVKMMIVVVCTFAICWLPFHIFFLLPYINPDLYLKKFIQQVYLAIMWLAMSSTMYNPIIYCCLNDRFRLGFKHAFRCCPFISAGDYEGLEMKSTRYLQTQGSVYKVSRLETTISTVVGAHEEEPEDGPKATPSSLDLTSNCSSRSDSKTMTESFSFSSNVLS

D(1A) dopamine receptor = D(1A) dopamine receptor (Homo sapiens, UniProt P21728)
Chain of D(1A) dopamine receptor (P21728 whole entry): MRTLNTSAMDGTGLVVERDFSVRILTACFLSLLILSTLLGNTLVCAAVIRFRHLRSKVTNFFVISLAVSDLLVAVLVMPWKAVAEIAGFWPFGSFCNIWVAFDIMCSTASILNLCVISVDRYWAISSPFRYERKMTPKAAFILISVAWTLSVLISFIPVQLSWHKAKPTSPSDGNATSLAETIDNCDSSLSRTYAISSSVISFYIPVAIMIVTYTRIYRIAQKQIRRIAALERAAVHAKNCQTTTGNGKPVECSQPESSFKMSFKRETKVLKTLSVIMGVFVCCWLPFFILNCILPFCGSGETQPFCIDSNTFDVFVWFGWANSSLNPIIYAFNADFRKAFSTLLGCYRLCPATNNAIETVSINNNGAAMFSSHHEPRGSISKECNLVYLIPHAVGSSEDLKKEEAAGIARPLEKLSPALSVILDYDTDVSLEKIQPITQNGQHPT

Androgen receptor [5] = molecular target: T4, Androgen receptor (Rattus norvegicus, UniProt P15207); assay type: functional
T4 sequence (P15207 whole entry): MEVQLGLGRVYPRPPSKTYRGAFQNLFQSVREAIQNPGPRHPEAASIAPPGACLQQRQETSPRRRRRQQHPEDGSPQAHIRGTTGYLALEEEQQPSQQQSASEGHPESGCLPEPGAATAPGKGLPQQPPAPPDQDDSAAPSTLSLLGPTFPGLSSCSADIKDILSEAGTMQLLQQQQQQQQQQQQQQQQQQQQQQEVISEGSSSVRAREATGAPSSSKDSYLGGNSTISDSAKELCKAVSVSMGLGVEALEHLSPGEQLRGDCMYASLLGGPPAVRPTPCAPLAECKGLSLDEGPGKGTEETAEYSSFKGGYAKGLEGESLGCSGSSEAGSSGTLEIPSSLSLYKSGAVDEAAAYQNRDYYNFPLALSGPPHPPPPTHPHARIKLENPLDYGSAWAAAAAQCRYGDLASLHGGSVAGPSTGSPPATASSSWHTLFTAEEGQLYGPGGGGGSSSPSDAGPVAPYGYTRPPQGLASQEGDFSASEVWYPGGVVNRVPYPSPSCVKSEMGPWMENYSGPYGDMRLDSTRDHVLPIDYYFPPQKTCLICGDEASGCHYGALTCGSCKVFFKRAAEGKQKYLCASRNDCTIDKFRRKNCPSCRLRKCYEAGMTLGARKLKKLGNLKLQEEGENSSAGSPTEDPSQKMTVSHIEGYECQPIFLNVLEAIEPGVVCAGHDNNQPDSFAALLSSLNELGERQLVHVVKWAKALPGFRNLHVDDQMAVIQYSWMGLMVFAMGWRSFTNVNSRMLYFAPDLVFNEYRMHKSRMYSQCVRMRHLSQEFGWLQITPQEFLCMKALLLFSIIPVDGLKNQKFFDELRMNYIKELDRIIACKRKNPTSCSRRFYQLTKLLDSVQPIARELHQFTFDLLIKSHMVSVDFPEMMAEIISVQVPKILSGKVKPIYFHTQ

[6] = molecular target: Gamma-aminobutyric acid receptor subunit alpha-1 (Rattus norvegicus, UniProt P62813)
Chain of Gamma-aminobutyric acid receptor subunit alpha-1 (P62813 whole entry): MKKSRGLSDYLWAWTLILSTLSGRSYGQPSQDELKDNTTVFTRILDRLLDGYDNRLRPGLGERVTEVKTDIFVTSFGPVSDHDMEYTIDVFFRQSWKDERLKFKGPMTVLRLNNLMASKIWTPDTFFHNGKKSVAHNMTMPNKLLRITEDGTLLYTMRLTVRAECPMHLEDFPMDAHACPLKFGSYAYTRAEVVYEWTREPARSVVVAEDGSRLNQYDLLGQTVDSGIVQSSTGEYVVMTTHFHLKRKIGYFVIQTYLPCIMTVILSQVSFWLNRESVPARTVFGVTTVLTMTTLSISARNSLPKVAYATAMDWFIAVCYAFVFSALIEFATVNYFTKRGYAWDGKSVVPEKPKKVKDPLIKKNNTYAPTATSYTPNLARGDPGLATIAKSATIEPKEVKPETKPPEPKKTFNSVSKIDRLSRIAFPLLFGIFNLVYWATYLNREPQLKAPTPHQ
Further: assay procedure not described here.

c1ccc2c(c1)CCc1ccccc1N2C1CN2CCC1CC2 (configuration not stated) [QUINUPRAMINE]
AC50 (Androgen receptor [1]): > 30 µM

CC(CCc1ccc(O)cc1)NCCc1ccc(O)c(O)c1 (configuration not stated) [DOBUTAMINE]
AC50 [2]: > 10 µM | AC50 [3]: > 30 µM | AC50 [4]: > 30 µM | AC50 (Histamine H2 receptor): > 10 µM | AC50 (Substance-P receptor): > 10 µM | AC50 (D(1A) dopamine receptor): > 10 µM

C[C@]12CC[C@@H]3c4ccc(O)cc4C[C@@H](CCCCCCCCC[S+]([O-])CCCC(F)(F)C(F)(F)F)[C@H]3[C@@H]1CC[C@@H]2O (some centres not stated) [FULVESTRANT]
AC50 (Androgen receptor [5]): > 30 µM

CC[C@@H]([C@H](C)O)n1ncn(-c2ccc(N3CCN(c4ccc(OC[C@@H]5CO[C@@](Cn6cncn6)(c6ccc(F)cc6F)C5)cc4)CC3)cc2)c1=O [POSACONAZOLE]
AC50 [6]: > 30 µM

C[C@H](Cc1cc2c(c(C(N)=O)c1)N(CCCO)CC2)NCCOc1ccccc1OCC(F)(F)F [SILODOSIN]
AC50 (Androgen receptor [1]): > 30 µM

C=CCSCC1Nc2cc(Cl)c(S(N)(=O)=O)cc2S(=O)(=O)N1 (configuration not stated) [ALTHIAZIDE]
AC50 [6]: > 30 µM

O=[N+]([O-])c1ccc(O)c2ncccc12 [NITROXOLINE]
AC50 [6]: > 30 µM

Oc1ccc2c(c1)CC[C@H](c1ccccc1)[C@@H]2c1ccc(OCCN2CCCC2)cc1 [LASOFOXIFENE]
AC50 (Androgen receptor [5]): > 30 µM

CN(C)CCOC(c1ccccc1)c1ccc(Br)cc1 (configuration not stated) [BROMODIPHENHYDRAMINE]
AC50 (Androgen receptor [1]): > 30 µM | AC50 [6]: > 30 µM

NC(=O)OCC(O)COc1ccc(Cl)cc1 (configuration not stated) [CHLORPHENESIN CARBAMATE]
AC50 [6]: > 30 µM

CC(C)COCC(CN(Cc1ccccc1)c1ccccc1)N1CCCC1 (configuration not stated) [BEPRIDIL]
AC50 [3]: > 30 µM | AC50 [4]: > 30 µM

CCC(C)C1(CC)C(=O)NC(=O)NC1=O (configuration not stated) [BUTABARBITAL]
AC50 (Androgen receptor [5]): > 30 µM

CN1CCN(C2=Nc3ccccc3Oc3ccc(Cl)cc32)CC1 [LOXAPINE]
AC50 [2]: > 10 µM | AC50 [3]: > 30 µM | AC50 [4]: > 30 µM | AC50 [6]: > 30 µM | AC50 (Substance-P receptor): > 10 µM | AC50 (D(1A) dopamine receptor): 0.102 µM

CN(C)CCCNc1c2ccccc2nc2cccc([N+](=O)[O-])c12 [NITRACRINE]
AC50 (Androgen receptor [5]): > 30 µM

[H]/N=C(/N)N/C(=N/[H])NCCc1ccccc1 [PHENFORMIN]
AC50 [2]: > 10 µM | AC50 [3]: > 30 µM | AC50 [4]: > 30 µM | AC50 (Histamine H2 receptor): > 10 µM | AC50 (D(1A) dopamine receptor): > 10 µM

CC(C)NCC(O)c1ccc(O)c(O)c1 (configuration not stated) [ISOPROTERENOL]
AC50 [2]: > 10 µM | AC50 [3]: > 30 µM | AC50 [4]: > 30 µM | AC50 (Histamine H2 receptor): > 10 µM | AC50 (Substance-P receptor): > 10 µM | AC50 (D(1A) dopamine receptor): > 10 µM

CC(=O)O[C@]1(C(C)=O)CC[C@H]2[C@@H]3C=C(Cl)C4=CC(=O)CC[C@]4(C)[C@H]3CC[C@@]21C [CHLORMADINONE ACETATE]
AC50 [6]: > 30 µM

CC(N)Cc1ccc(O)cc1 (configuration not stated) [HYDROXYAMPHETAMINE]
AC50 [6]: > 30 µM

C=CCNc1nc(NCC=C)nc(N2CCN(C(c3ccc(F)cc3)c3ccc(F)cc3)CC2)n1 [ALMITRINE]
AC50 (Androgen receptor [5]): > 30 µM

CC(C(=O)O)c1ccc(-c2ccccc2)c(F)c1 (configuration not stated) [FLURBIPROFEN]
AC50 [6]: > 30 µM

CC(C)N(CCNC(=O)CN1CCCC1=O)C(C)C
AC50 (Androgen receptor [1]): > 30 µM
